Test results reported in patent US20230279025A1, “KRAS G12D INHIBITORS” (Mirati Therapeutics, Inc., priority 2020, published 2023).

These molecules were tested against KRas G12D (Homo sapiens (Human), UniProt P01116, G12D) (assay: KRas G12D Binding Assay (TR-FRET displacement of Cy5 labelled tracer)). Conditions: GDP-loaded KRAS G12D (amino acids 1:169), 60 minute incubation at 22° C.
Protocol: After a 60 minute incubation at 22° C., the reaction was measured using a PerkinElmer EnVision multimode plate reader via TR-FRET dual wavelength detection, and the percent of control (POC) calculated using a ratiometric emission factor. […] The POC values were fit to a 4-parameter logistic curve and the IC50 value was determined as the concentration where the curve crosses 50 POC.
ND stands for “not determined.”

KRas G12D, sequence (P01116 other isoform, or with tags, fused parts or gaps G12D): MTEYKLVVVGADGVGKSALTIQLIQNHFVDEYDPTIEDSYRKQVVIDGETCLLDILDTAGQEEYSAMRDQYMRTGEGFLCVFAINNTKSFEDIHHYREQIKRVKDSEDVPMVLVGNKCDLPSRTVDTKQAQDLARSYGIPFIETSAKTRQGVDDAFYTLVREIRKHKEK

SMILES	IC50 [µM]
CN(C)c1ccccc1-c1ncc2c(N3C[C@H]4CC[C@@H](C3)N4)nc(OCC34CCCN3CCC4)nc2c1F [Example 296, 2-(4-((1R,5S)-3,8-diazabicyclo[3.2.1]octan-3-yl)-8-fluoro-2-((hexahydro-1H-pyrrolizin-7a-yl)methoxy)pyrido[4,3-d]pyrimidin-7-yl)-N,N-dimethylaniline]	0.112
Fc1c(-c2ccccc2C2CC2)ncc2c(N3C[C@H]4CC[C@@H](C3)N4)nc(OCC34CCCN3CCC4)nc12 [Example 297]	0.0889
CC(C)c1c(Cl)cccc1-c1ncc2c(N3C[C@H]4CC[C@@H](C3)N4)nc(OCC34CCCN3CCC4)nc2c1F [Example 298, 4-((1R,5S)-3,8-diazabicyclo[3.2.1]octan-3-yl)-7-(3-chloro-2-isopropylphenyl)-8-fluoro-2-((hexahydro-1H-pyrrolizin-7a-yl)methoxy)pyrido[4,3-d]pyrimidine]	0.0083
CC(C)c1c(F)cccc1-c1ncc2c(N3C[C@H]4CC[C@@H](C3)N4)nc(OCC34CCCN3CCC4)nc2c1F [Example 299, 4-((1R,5S)-3,8-diazabicyclo[3.2.1]octan-3-yl)-8-fluoro-7-(3-fluoro-2-isopropylphenyl)-2-((hexahydro-1H-pyrrolizin-7a-yl)methoxy)pyrido[4,3-d]pyrimidine]	0.132
CCC(C)c1ccccc1-c1ncc2c(N3C[C@H]4CC[C@@H](C3)N4)nc(OCC34CCCN3CCC4)nc2c1F (stereo partly drawn) [Example 300, 4-((1R,5S)-3,8-diazabicyclo[3.2.1]octan-3-yl)-7-(2-(sec-butyl)phenyl)-8-fluoro-2-((hexahydro-1H-pyrrolizin-7a-yl)methoxy)pyrido[4,3-d]pyrimidine]	0.768
Cc1cccc(-c2ncc3c(N4C[C@H]5CC[C@@H](C4)N5)nc(OCC45CCCN4CCC5)nc3c2F)c1C(C)C [Example 301, 4-((1R,5S)-3,8-diazabicyclo[3.2.1]octan-3-yl)-8-fluoro-2-((hexahydro-1H-pyrrolizin-7a-yl)methoxy)-7-(2-isopropyl-3-methylphenyl)pyrido[4,3-d]pyrimidine]	0.0351
Fc1cccc(-c2ncc3c(N4C[C@H]5CC[C@@H](C4)N5)nc(OCC45CCCN4CCC5)nc3c2F)c1OC(F)F [Example 302, 4-((1R,5S)-3,8-diazabicyclo[3.2.1]octan-3-yl)-7-(2-(difluoromethoxy)-3-fluorophenyl)-8-fluoro-2-((hexahydro-1H-pyrrolizin-7a-yl)methoxy)pyrido[4,3-d]pyrimidine]	0.0436
Fc1c(-c2ccccc2OC(F)F)ncc2c(N3C[C@H]4CC[C@@H](C3)N4)nc(OCC34CCCN3CCC4)nc12 [Example 303, 4-((1R,5S)-3,8-diazabicyclo[3.2.1]octan-3-yl)-7-(2-(difluoromethoxy)phenyl)-8-fluoro-2-((hexahydro-1H-pyrrolizin-7a-yl)methoxy)pyrido[4,3-d]pyrimidine]	0.357
Fc1cccc(-c2ncc3c(N4C[C@H]5CC[C@@H](C4)N5)nc(OCC45CCCN4CCC5)nc3c2F)c1C1CC1 [Example 304, 4-((1R,5S)-3,8-diazabicyclo[3.2.1]octan-3-yl)-7-(2-cyclopropyl-3-fluorophenyl)-8-fluoro-2-((hexahydro-1H-pyrrolizin-7a-yl)methoxy)pyrido[4,3-d]pyrimidine]	0.0292
CC1(c2ccccc2-c2ncc3c(N4C[C@H]5CC[C@@H](C4)N5)nc(OCC45CCCN4CCC5)nc3c2F)CC1 [Example 305, 4-((1R,5S)-3,8-diazabicyclo[3.2.1]octan-3-yl)-8-fluoro-2-((hexahydro-1H-pyrrolizin-7a-yl)methoxy)-7-(2-(1-methylcyclopropyl)phenyl)pyrido[4,3-d]pyrimidine]	0.367
CC(C)c1ccncc1-c1ncc2c(N3C[C@H]4CC[C@@H](C3)N4)nc(OCC34CCCN3CCC4)nc2c1F [Example 306, 4-((1R,5S)-3,8-diazabicyclo[3.2.1]octan-3-yl)-8-fluoro-2-((hexahydro-1H-pyrrolizin-7a-yl)methoxy)-7-(4-isopropylpyridine-3-yl)pyrido[4,3-d]pyrimidine]	0.26
CC(C)c1ncccc1-c1ncc2c(N3C[C@H]4CC[C@@H](C3)N4)nc(OCC34CCCN3CCC4)nc2c1F [Example 307, 4-((1R,5S)-3,8-diazabicyclo[3.2.1]octan-3-yl)-8-fluoro-2-((hexahydro-1H-pyrrolizin-7a-yl)methoxy)-7-(2-isopropylpyridin-3-yl)pyrido[4,3-d]pyrimidine]	3.16
CN(C)Cc1ccc(COCCNC(=O)O[C@@H]2C[C@@H](COc3nc(N4C[C@H]5CC[C@@H](C4)N5)c4cnc(-c5cccc6cccc(Cl)c56)c(F)c4n3)N(C)C2)cc1 [Example 308, (3R,5S)-5-(((4-((1R,5S)-3,8-diazabicyclo[3.2.1]octan-3-yl)-7-(8-chloronaphthalen-1-yl)-8-fluoropyrido[4,3-d]pyrimidin-2-yl)oxy)methyl)-1-methylpyrrolidin-3-yl (2-((4-((dimethylamino)methyl)benzyl)oxy)ethyl)carbamate]	0.117
CC(C)c1ccccc1-c1ncc2c(N3C[C@H]4CC[C@@H](C3)N4)nc(OCC34CCCN3CCC4)nc2c1F [Example 309, 4-((1R,5S)-3,8-diazabicyclo[3.2.1]octan-3-yl)-8-fluoro-7-(2-isopropylphenyl)-2-((tetrahydro-1H-pyrrolizin-7a(5H)-yl)methoxy)pyrido[4,3-d]pyrimidine]	0.205
Fc1c(-c2ccccc2Cl)ncc2c(N3C[C@H]4CC[C@@H](C3)N4)nc(OCC34CCCN3CCC4)nc12 [Example 310, 4-((1R,5S)-3,8-diazabicyclo[3.2.1]octan-3-yl)-7-(2-chlorophenyl)-8-fluoro-2-((hexahydro-1H-pyrrolizin-7a-yl)methoxy)pyrido[4,3-d]pyrimidine]	0.559
COc1c(Cl)cccc1-c1ncc2c(N3C[C@H]4CC[C@@H](C3)N4)nc(OCC34CCCN3CCC4)nc2c1F [Example 311, 4-((1R,5S)-3,8-diazabicyclo[3.2.1]octan-3-yl)-7-(3-chloro-2-methoxyphenyl)-8-fluoro-2-((hexahydro-1H-pyrrolizin-7a-yl)methoxy)pyrido[4,3-d]pyrimidine]	0.135
CCc1c(Cl)cccc1-c1ncc2c(N3C[C@H]4CC[C@@H](C3)N4)nc(OCC34CCCN3CCC4)nc2c1F [Example 312, 4-((1R,5S)-3,8-diazabicyclo[3.2.1]octan-3-yl)-7-(3-chloro-2-ethylphenyl)-8-fluoro-2-((hexahydro-1H-pyrrolizin-7a-yl)methoxy)pyrido[4,3-d]pyrimidine]	0.009
COc1c(C)cccc1-c1ncc2c(N3C[C@H]4CC[C@@H](C3)N4)nc(OCC34CCCN3CCC4)nc2c1F [Example 313, 4-((1R,5S)-3,8-diazabicyclo[3.2.1]octan-3-yl)-8-fluoro-2-((hexahydro-1H-pyrrolizin-7a-yl)methoxy)-7-(2-methoxy-3-methylphenyl)pyrido[4,3-d]pyrimidine]	0.231
CCc1c(F)ccc2cc(O)cc(-c3ncc4c(N5C[C@H]6CC[C@@H](C5)N6)nc(OCC56CCCN5CCC6)nc4c3F)c12 [Example 314, 4-(4-((1R,5S)-3,8-diazabicyclo[3.2.1]octan-3-yl)-8-fluoro-2-((hexahydro-1H-pyrrolizin-7a-yl)methoxy)pyrido[4,3-d]pyrimidin-7-yl)-5-ethyl-6-fluoronaphthalen-2-ol]	0.0006
OCCc1ccccc1-c1ncc2c(N3C[C@H]4CC[C@@H](C3)N4)nc(OCC34CCCN3CCC4)nc2c1F [Example 315, 2-(2-(4-((1R,5S)-3,8-diazabicyclo[3.2.1]octan-3-yl)-8-fluoro-2-((hexahydro-1H-pyrrolizin-7a-yl)methoxy)pyrido[4,3-d]pyrimidin-7-yl)phenyl)ethanol]	2.54
Cc1ccc2cccc(-c3ncc4c(N5C[C@H]6CC[C@@H](C5)N6)nc(OC[C@@H]5CCCN5C)nc4c3F)c2c1 [Example 321, 4-((1R,5S)-3,8-diazabicyclo[3.2.1]octan-3-yl)-8-fluoro-7-(7-methylnaphthalen-1-yl)-2-(((S)-1-methylpyrrolidin-2-yl)methoxy)pyrido[4,3-d]pyrimidine]	0.613
Fc1c(-c2cccc(Cl)c2C2CC2)ncc2c(N3C[C@H]4CC[C@@H](C3)N4)nc(OCC34CCCN3CCC4)nc12 [Example 322, 4-((1R,5S)-3,8-diazabicyclo[3.2.1]octan-3-yl)-7-(3-chloro-2-cyclopropylphenyl)-8-fluoro-2-((tetrahydro-1H-pyrrolizin-7a(5H)-yl)methoxy)pyrido[4,3-d]pyrimidine]	0.0049
CN1CCCC1(CO)COc1nc(N2C[C@H]3CC[C@@H](C2)N3)c2cnc(-c3cccc4ccccc34)c(F)c2n1 (stereo partly drawn) [Example 323, (2-(((4-((1R,5S)-3,8-diazabicyclo[3.2.1]octan-3-yl)-8-fluoro-7-(naphthalen-1-yl)pyrido[4,3-d]pyrimidin-2-yl)oxy)methyl)-1-methylpyrrolidin-2-yl)methanol]	1.69
Fc1c(-c2cccc(Cl)c2C(F)(F)F)ncc2c(N3C[C@H]4CC[C@@H](C3)N4)nc(OCC34CCCN3CCC4)nc12 [Example 328, 4-((1R,5S)-3,8-diazabicyclo[3.2.1]octan-3-yl)-7-(3-chloro-2-(trifluoromethyl)phenyl)-8-fluoro-2-((tetrahydro-1H-pyrrolizin-7a(5H)-yl)methoxy)pyrido[4,3-d]pyrimidine]	0.0094
CSc1ccccc1-c1ncc2c(N3C[C@H]4CC[C@@H](C3)N4)nc(OCC34CCCN3CCC4)nc2c1F [Example 329, 4-((1R,5S)-3,8-diazabicyclo[3.2.1]octan-3-yl)-8-fluoro-7-(2-(methylthio)phenyl)-2-((tetrahydro-1H-pyrrolizin-7a(5H)-yl)methoxy)pyrido[4,3-d]pyrimidine]	0.203
Cc1ccc2[nH]ncc2c1-c1ncc2c(N3C[C@H]4CC[C@@H](C3)N4)nc(OCC34CCCN3CCC4)nc2c1F [Example 332, 4-((1R,5S)-3,8-diazabicyclo[3.2.1]octan-3-yl)-8-fluoro-7-(5-methyl-1H-indazol-4-yl)-2-((tetrahydro-1H-pyrrolizin-7a(5H)-yl)methoxy)pyrido[4,3-d]pyrimidine]	0.164
